Measured values published in patent US7795255B2, “Rigidified compounds for modulating heparanase activity” (InSight Biopharmaceuticals Ltd., priority 2005, dated 2010).

Assays:
[1] = biological target: T1, vascular endothelial growth factor (VEGF) (Homo sapiens, UniProt P15692); experiment: ELISA for determination of binding of VEGF to heparin; conditions: for IC50: inhibition of VEGF binding to heparin, NI = no inhibition; for inhibition of VEGF binding to heparin: inhibition towards both growth factors
T1 sequence (P15692 27-191 isoform P15692-4): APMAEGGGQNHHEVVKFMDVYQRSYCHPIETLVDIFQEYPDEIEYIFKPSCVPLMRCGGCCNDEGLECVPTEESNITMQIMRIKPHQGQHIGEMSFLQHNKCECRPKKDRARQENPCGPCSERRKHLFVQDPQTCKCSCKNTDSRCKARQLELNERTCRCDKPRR
Description: Enzyme-linked immunosorbent assay (ELISA) for determination of binding of vascular endothelial growth factor (VEGF) to heparin: 96-well microplates were coated for 2 hours. at 23-25° C. with 5 μg/ml heparin-albumin (Rimon Biotech) and blocked with 1% bovine serum albumin (BSA) in phosphate buffer (PBS) with 0.05% Tween and 0.01% thimerosal for 2 hours. VEGF was added to the plates at a concentration of 10 ng/ml and the plates were thereafter incubated for 45 minutes at 23-25° C. The amount of VEGF bound to heparin was detected using anti-VEGF monoclonal antibody (Sigma Cat. No. V4758) at a concentration of 0.26 μg/ml and secondary antibodies Sheep anti-mouse IgG linked to horseradish peroxidase (1:2000) using 3,3′,5,5′-tetramethylbenzidine (TMB, Pierce Cat. No. 34021) as a substrate for peroxidase. The plates were read at 450 nm with a reference wavelength of 630 nm using a VERSAmax plate reader. […] Percent inhibition was calculated as compared with a control pre-incubated with a solution of 1% DMSO and the results are presented in Table 3 below.

[2] = biological target: T2, recombinant human pro-heparanase (H60) (Homo sapiens, UniProt Q9Y251); experiment: Pro-heparanase (H60) activation in a cell-based assay; conditions: inhibition of pro-heparanase activation in CHO cells; NI = no inhibition
T2 construct: Heparanase maturation involves the removal of the signal peptide, transforming the 65 kDa pre-pro-heparanase into a 60 kDa pro-heparanase; made in house
T2 sequence (Q9Y251 36-543): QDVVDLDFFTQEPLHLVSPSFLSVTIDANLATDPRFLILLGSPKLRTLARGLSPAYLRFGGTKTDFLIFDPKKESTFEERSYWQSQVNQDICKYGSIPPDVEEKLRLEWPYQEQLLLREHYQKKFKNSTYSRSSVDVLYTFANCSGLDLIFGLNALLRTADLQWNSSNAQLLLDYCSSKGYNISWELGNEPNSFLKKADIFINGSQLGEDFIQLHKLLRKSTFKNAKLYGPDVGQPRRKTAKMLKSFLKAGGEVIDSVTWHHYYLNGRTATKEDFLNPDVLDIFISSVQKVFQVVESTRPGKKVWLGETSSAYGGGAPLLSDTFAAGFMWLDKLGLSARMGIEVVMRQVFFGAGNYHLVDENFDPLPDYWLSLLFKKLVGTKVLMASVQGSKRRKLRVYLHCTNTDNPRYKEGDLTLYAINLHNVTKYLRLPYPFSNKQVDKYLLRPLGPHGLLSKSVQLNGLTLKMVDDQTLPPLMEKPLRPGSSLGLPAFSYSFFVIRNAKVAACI
Description: Pro-heparanase (H60) activation in a cell-based assay: Chinese hamster ovary (CHO) cells were grown in complete F12 medium supplemented with 10% fetal calf serum (FCS). […] The plates were incubated for 24 hours in a 37° C. humidified incubator with 5% CO2. […] The plates were further incubated for additional 4 hours. The pro-heparanase was allowed to internalize by the cells and further processed to generate the active 53 kDa heparanase. At the end of the incubation, the cells were lysed by three consecutive cycles of freezing and thawing in a −80° C. freezer and a 37° C. shaker.
The rigidified compounds described herein were tested for inhibition of pro-heparanase activation in the cell-based assay described above.

[3] = biological target: β-FGF (Homo sapiens, UniProt P09038); experiment: ELISA for determination of binding of β-FGF to heparin; conditions: for IC50: inhibition of β-FGF binding to heparin, NI = no inhibition; for inhibition of β-FGF binding to heparin: inhibition towards both growth factors
Description: ELISA for determination of binding of β-FGF to heparin: 96-well microplates were coated for 2 hours at 23-25° C. with 5 μg/ml heparin-albumin (Rimon Biotech) and blocked with 1% BSA in PBS, with 0.05% Tween, and 0.01% thimerosal for 2 hours. β-FGF was added to the plates at a concentration of 10 ng/ml and plates were incubated for 45 minutes at 23-25° C. The amount of β-FGF bound to heparin was detected using anti-FGF monoclonal antibody (Sigma Cat. No. F6162) at a concentration of 2.5 ng/ml and secondary antibodies Sheep anti-mouse IgG linked to horseradish peroxidase (1:3000) TMB (Pierce Cat. No. 34021) was used as a substrate for peroxidase. The plates were read at 450 nm with a reference wavelength of 630 nm using a VERSAmax plate reader.

Chain of β-FGF (P09038 143-288): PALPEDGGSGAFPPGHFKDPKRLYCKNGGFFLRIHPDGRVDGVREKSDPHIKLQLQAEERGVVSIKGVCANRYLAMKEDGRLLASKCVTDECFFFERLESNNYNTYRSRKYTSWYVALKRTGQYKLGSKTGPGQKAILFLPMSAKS

**Q.** What does the source list for “4-[2-(4-Nitro-phenyl)-4,6-dioxo-6H-1-oxa-3b,5-diaza-cyclopenta[a]pentalen-5-yl]-butyric acid ethyl ester [Compound 30]”?
**A.** IC50 [1]: 100 nM; IC50 [2]: 3900 nM

**Q.** Which IC50 [1] does the source give for `CCOC(=O)CCCN1C(=O)c2cc3oc(-c4ccc([N+](=O)[O-])cc4)cc3n2C1=S` [Compound 1, ethyl 4-[2-(4-nitro-phenyl)-6-oxo-4-thioxo-6H-1-oxa-3b,5-diaza-cyclopenta[a]pentalen-5-yl]-butyric acid ethyl ester] here?
**A.** 130 nM

**Q.** And the IC50 [3]?
**A.** 140 nM

**Q.** Which results are given for `CON(C)C(=O)CCCN1C(=O)c2cc3oc(-c4ccc([N+](=O)[O-])cc4)cc3n2C1=S` [Compound 3, N-methoxy-N-methyl-4-[2-(4-nitro-phenyl)-6-oxo-4-thioxo-6H-1-oxa-3b,5-diaza-cyclopenta[a]pentalen-5-yl]-butyramide]?
**A.** IC50 [1]: 250 nM; inhibition of VEGF binding to heparin [1]: sub-micromolar; IC50 [3]: 90 nM; inhibition of β-FGF binding to heparin [3]: sub-micromolar

**Q.** For `CCOC(=O)CCCN1C(=O)c2cc3oc(-c4ccc(Cl)cc4)cc3n2C1=S` [Compound 4, ethyl 4-[2-(4-chloro-phenyl)-6-oxo-4-thioxo-6H-1-oxa-3b,5-diaza-cyclopenta[a]pentalen-5-yl]-butyric acid ethyl ester], which IC50 [1] is on record?
**A.** 130 nM

**Q.** And the IC50 [3]?
**A.** 60 nM

**Q.** What about the IC50 [2] of the same compound?
**A.** 760 nM

**Q.** Which IC50 [1] does the source give for `CCOC(=O)CC(C)(C)CN1C(=O)c2cc3oc(-c4ccc([N+](=O)[O-])cc4)cc3n2C1=S` [Compound 7, 3,3-dimethyl-4-[2-(4-nitro-phenyl)-6-oxo-4-thioxo-6H-1-oxa-3b,5-diaza-cyclopenta[a]pentalen-5-yl]-butyric acid ethyl ester] here?
**A.** 100 nM

**Q.** What about the “inhibition of VEGF binding to heparin” value [1] of the same compound?
**A.** sub-micromolar

**Q.** What about the IC50 [3] of the same compound?
**A.** 50 nM

**Q.** What about the “inhibition of β-FGF binding to heparin” value [3] of the same compound?
**A.** sub-micromolar

**Q.** What about the IC50 [2] of the same compound?
**A.** 2600 nM

**Q.** Which IC50 [2] does the source give for `CC(C)(CC(=O)O)CN1C(=O)c2cc3oc(-c4ccc([N+](=O)[O-])cc4)cc3n2C1=S` [Compound 8, 3,3-Dimethyl-4-[2-(4-nitro-phenyl)-6-oxo-4-thioxo-6H-1-oxa-3b,5-diaza-cyclopenta[a]pentalen-5-yl]-butyric acid] here?
**A.** 780 nM

**Q.** Which IC50 [2] does the source give for `CC(C)(CC(=O)NO)CN1C(=O)c2cc3oc(-c4ccc([N+](=O)[O-])cc4)cc3n2C1=S` [Compound 9, N-hydroxy-3,3-dimethyl-4-[2-(4-nitro-phenyl)-6-oxo-4-thioxo-6H-1-oxa-3b,5-diaza-cyclopenta[a]pentalen-5-yl]-butyramide] here?
**A.** 170 nM

**Q.** Which IC50 [1] does the source give for `CCOC(=O)CC(C)(C)CN1C(=O)c2cc3oc(-c4ccc(Cl)cc4)cc3n2C1=S` [Compound 10, 4-[2-(4-Chloro-phenyl)-6-oxo-4-thioxo-6H-1-oxa-3b,5-diaza-cyclopenta[a]pentalen-5-yl]-3,3-dimethyl-butyric acid ethyl ester] here?
**A.** 170 nM

**Q.** And the “inhibition of VEGF binding to heparin” value [1]?
**A.** sub-micromolar

**Q.** What about the IC50 [3] of the same compound?
**A.** 200 nM

**Q.** And the “inhibition of β-FGF binding to heparin” value [3]?
**A.** sub-micromolar

**Q.** And the IC50 [2]?
**A.** 1500 nM

**Q.** How did the IC50 [1] turn out when `CC(C)(CC(=O)On1nnc2ccccc2c1=O)CN1C(=O)c2cc3oc(-c4ccc(Cl)cc4)cc3n2C1=S` [Compound 12, 4-[2-(4-Chloro-phenyl)-6-oxo-4-thioxo-6H-1-oxa-3b,5-diaza-cyclopenta[a]pentalen-5-yl]-3,3-dimethyl-butyric acid 4-oxo-4H-benzo[d][1,2,3]triazin-3-yl ester] was run?
**A.** 260 nM

**Q.** And the “inhibition of VEGF binding to heparin” value [1]?
**A.** sub-micromolar

**Q.** What about the IC50 [3] of the same compound?
**A.** 160 nM

**Q.** What about the “inhibition of β-FGF binding to heparin” value [3] of the same compound?
**A.** sub-micromolar

**Q.** For `CCN(CC)C(=O)CC(C)(C)CN1C(=O)c2cc3oc(-c4ccc(Cl)cc4)cc3n2C1=S` [Compound 13, 4-[2-(4-Chloro-phenyl)-6-oxo-4-thioxo-6H-1-oxa-3b,5-diaza-cyclopenta[a]pentalen-5-yl]-N,N-diethyl-3,3-dimethyl-butyramide], which IC50 [1] is on record?
**A.** 550 nM

**Q.** And the “inhibition of VEGF binding to heparin” value [1]?
**A.** sub-micromolar

**Q.** What about the IC50 [3] of the same compound?
**A.** 220 nM

**Q.** What about the “inhibition of β-FGF binding to heparin” value [3] of the same compound?
**A.** sub-micromolar

**Q.** And the IC50 [2]?
**A.** 1400 nM

**Q.** What does the source list for `CN(C)CCNC(=O)CC(C)(C)CN1C(=O)c2cc3oc(-c4ccc(Cl)cc4)cc3n2C1=S` [Compound 14, 4-[2-(4-Chloro-phenyl)-6-oxo-4-thioxo-6H-1-oxa-3b,5-diaza-cyclopenta[a]pentalen-5-yl]-N-(2-dimethylamino-ethyl)-3,3-dimethyl-butyramide]?
**A.** IC50 [1]: 260 nM; inhibition of VEGF binding to heparin [1]: sub-micromolar; IC50 [3]: 470 nM; inhibition of β-FGF binding to heparin [3]: sub-micromolar; IC50 [2]: 120 nM

**Q.** What does the source list for `CN(C)CCCNC(=O)CC(C)(C)CN1C(=O)c2cc3oc(-c4ccc(Cl)cc4)cc3n2C1=S` [Compound 15, 4-[2-(4-Chloro-phenyl)-6-oxo-4-thioxo-6H-1-oxa-3b,5-diaza-cyclopenta[a]pentalen-5-yl]-N-(3-dimethylamino-propyl)-3,3-dimethyl-butyramide]?
**A.** IC50 [1]: 180 nM; inhibition of VEGF binding to heparin [1]: sub-micromolar; IC50 [3]: 440 nM; inhibition of β-FGF binding to heparin [3]: sub-micromolar; IC50 [2]: 160 nM

**Q.** For `CC(C)(CC(=O)N1CCOCC1)CN1C(=O)c2cc3oc(-c4ccc(Cl)cc4)cc3n2C1=S` [Compound 17, 2-(4-Chloro-phenyl)-5-(2,2-dimethyl-4-morpholin-4-yl-4-oxo-butyl)-4-thioxo-4,5-dihydro-1-oxa-3b,5-diaza-cyclopenta[a]pentalen-6-one], which IC50 [1] is on record?
**A.** 420 nM

**Q.** What about the “inhibition of VEGF binding to heparin” value [1] of the same compound?
**A.** sub-micromolar

**Q.** And the IC50 [3]?
**A.** 870 nM

**Q.** And the “inhibition of β-FGF binding to heparin” value [3]?
**A.** sub-micromolar

**Q.** And the IC50 [2]?
**A.** 150 nM

**Q.** What does the source list for `CCOP(=O)(CCCN1C(=O)c2cc3oc(-c4ccc(Cl)cc4)cc3n2C1=S)OCC` [Compound 27, {3-[2-(4-chloro-phenyl)-6-oxo-4-thioxo-6H-1-oxa-3b,5-diaza-cyclopenta[a]pentalen-5-yl]-propyl}-phosphonic acid diethyl ester]?
**A.** IC50 [1]: 300 nM; IC50 [2]: 260 nM

**Q.** `CCOC(=O)CCCN1C(=O)c2cc3oc(Oc4ccc([N+](=O)[O-])cc4)cc3n2C1=S` [Compound 33, ethyl 4-[2-(4-nitro-phenoxy)-6-oxo-4-thioxo-6H-1-oxa-3b,5-diaza-cyclopenta[a]pentalen-5-yl]-butyric acid ethyl ester] was tested. Which IC50 [2] did it give?
**A.** 16000 nM

**Q.** `CCOC(=O)CCCN1C(=O)c2cc3oc4ccc([N+](=O)[O-])cc4c3n2C1=S` [Compound 38, ethyl 4-[2,3-(3-nitro-phenyl)-6-oxo-4-thioxo-6H-1-oxa-3b,5-diaza-cyclopenta[a]pentalen-5-yl]-butyric acid ethyl ester] was tested. Which IC50 [1] did it give?
**A.** 22500 nM

**Q.** What about the IC50 [3] of the same compound?
**A.** 11500 nM

**Q.** Which IC50 [2] does the source give for `CCOC(=O)CCCn1c(=S)sc2c(N)snc21` [Compound 43, ethyl 4-(3-amino-5-thioxo-thiazolo[4,5-c]isothiazol-6-yl)-butyric acid ethyl ester] here?
**A.** 25000 nM

**Q.** `CCOC(=O)CCCn1c(=S)sc2c(I)snc21` [Compound 44, ethyl 4-(3-iodo-5-thioxo-thiazolo[4,5-c]isothiazol-6-yl)-butyric acid ethyl ester] was tested. Which IC50 [2] did it give?
**A.** 7000 nM

**Q.** How did the IC50 [1] turn out when `CCOC(=O)CCCn1c(=S)sc2c(-c3ccc(-c4ccc([N+](=O)[O-])cc4)o3)snc21` [Compound 45, 4-{3-[5-(4-nitro-phenyl)-furan-2-yl]-5-thioxo-thiazolo[4,5-c]isothiazol-6-yl}-butyric acid ethyl ester] was run?
**A.** 15000 nM
